In the test the target is T1, Proteinase-activated receptor 1 (Homo sapiens, UniProt P25116).
T1 sequence (P25116 whole entry): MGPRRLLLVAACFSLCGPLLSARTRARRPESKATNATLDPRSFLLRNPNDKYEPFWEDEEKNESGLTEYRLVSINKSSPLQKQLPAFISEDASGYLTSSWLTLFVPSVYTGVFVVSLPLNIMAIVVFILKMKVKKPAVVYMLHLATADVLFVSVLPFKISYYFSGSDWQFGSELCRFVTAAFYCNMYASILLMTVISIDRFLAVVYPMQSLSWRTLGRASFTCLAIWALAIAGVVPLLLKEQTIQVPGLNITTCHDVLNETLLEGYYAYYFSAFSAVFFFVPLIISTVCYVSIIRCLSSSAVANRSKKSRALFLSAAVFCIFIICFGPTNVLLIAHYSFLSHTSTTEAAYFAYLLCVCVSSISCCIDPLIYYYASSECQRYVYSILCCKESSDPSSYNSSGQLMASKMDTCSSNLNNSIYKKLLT
Description: Evaluated for the activation of human thrombin receptor measured by platelet aggregation.

Where a SMILES comes first, the peptide text is derived from it. [ ]: non-standard residue; d: D form. Phe(4-F) = N[C@@H](Cc1ccc(F)cc1)C(=O)O; hArg = N=C(N)NCCCC[C@H](N)C(=O)O; Cha = N[C@@H](CC1CCCCC1)C(=O)O

`C[C@H](N)C(=O)N[C@@H](Cc1ccc(F)cc1)C(=O)N[C@@H](CCCNC(=N)N)C(=O)N[C@@H](CC1CCCCC1)C(=O)N[C@@H](CCCCNC(=N)N)C(=O)N[C@@H](Cc1ccc(O)cc1)C(N)=O` [(S)-2-((S)-2-{(S)-2-[(S)-2-((S)-2-Amino-propionylamino)-3-(4-fluoro-phenyl)-propionylamino]-5-guanidino-pentanoylamino}-3-cyclohexyl-propionylamino)-6-guanidino-hexanoic acid [1-carbamoyl-2-(4-hydroxy-phenyl)-ethyl]-amide] (H-A[Phe(4-F)]R[Cha][hArg]Y-NH2): the EC50 (in general, the concentration giving half of the maximal effect) is 0.16 µM.

(Values after BindingDB's records for doi:10.1021/jm00020a029 (Merck Research Laboratories, 1995).)
